Tested on: tumor biopsies (colorectal cancer, pancreatic cancer)
Experiment: GeoMx Digital Spatial Profiling of patient tumor biopsies
Format: in vivo, human
From the text: Digital spatial profiling. An Agilent Technologies hybridization oven was used for baking tissue onto slides (Agilent, Santa Clara, CA, USA). A NanoString GeoMx® Digital Spatial Profiler (DSP) instrument (NanoString, Seattle, WA, USA) was used to scan slides, identify regions of interest (ROIs), and collect photocleavable barcodes according to manufacturer instructions. A custom panel was designed to include the following proteins: Ms IgG1, Ms IgG2a, Rb IgG, GAPDH, Histone H3, S6, Beta-2-microglobulin, CD31, CD45, Ki-67, ARG1, CD11 b, CD11 c, CD14, CD163, CD39, CD40, CD68, HLA-DR, GZMB, CD20, CD3, CD34, CD4, CD56, CD66b, CD8, Foxp3, Fibronectin, 4-1BB, B7-H3, CTLA4, GITR, IDO1, LAG3, OX40L, STING, Tim-3, VISTA, Bcl-2, ER-α, EpCAM, Her2, MART1, NY-ESO-1, PR, PTEN, PanCk, SMA, CD127, CD25, CD27, CD44, CD45RO, CD80, ICOS, PD-1, PD-L1, and PD-L2. An Eppendorf MasterCycler Gradient Thermal Cycler was used to generate the Illumina sequencing libraries from the photocleaved tags. (Eppendorf, Hamburg, Germany). An Agilent Fragment Analyzer (RRID: SCR_019417) was used for library size distribution analysis with a high-sensitivity NGS Fragment Kit (Cat #DNF-474-0500, Agilent, Santa Clara, CA, USA). qPCR for quantification was run using an Illumina-compatible KAPA Library Quantification Kits (ROX Low) (cat #KK4873) on an Applied Biosystems ViiA 7 Real-Time qPCR/PCR Thermal Cycler System (Applied Biosystems, San Francisco, CA, USA) and was analyzed using QuantStudio software (RRID: SCR_018712). Sequencing was performed using a NextSeq 500/550 High Output Kit v2.5 (75 Cycles) kit (cat #20024906) on an Illumina Sequencing NextSeq 550 System (RRID: SCR_016381, Illumina, San Diego, CA, USA). The initial annotated dataset went through quality control (QC) to check if housekeeper genes and background (isotype) control molecules were themselves correlated with the predictors of interest. Every ROI was tested for raw sequencing reads (segments with <1000 raw reads were removed), % sequencing saturation, defined as (1-deduplicated reads/aligned reads)%, segments below ˜50% were not analyzed), and nuclei count per segment, for which >100 nuclei per segment is generally recommended. Both immunoglobulins (lgGs) and housekeeper genes were highly correlated with one another. Signal to noise (SNR) ratio was calculated using background probes and all probes were detected above the background in at least one ROI. data were normalized based on background IgG expression and all normalization factors were well distributed. Data analysis and visualization were generated using R (RRID: SCR_001905; R Development Core Team, 2020).
PanCK+ expression of immunosuppressive CD39 negatively correlated with time-on-treatment (Tx time) while CD45+ expression of monocyte/macrophage marker CD163 positively correlated with Tx time. The inventors used GeoMx Digital Spatial Profiling (DSP) technology to profile the expression of fifty-nine proteins in tumor biopsies (N=12) from patients treated with elraglusib (N=7). A total of 42% (N=5) of the tumor biopsies analyzed were collected near or before treatment start (pre-treatment) and 58% (N=7) of the biopsies analyzed were collected from post-treatment (average time-on-treatment (Tx time) at post-treatment biopsy: 270 days) (FIG. 7A). Primary tumor types included colorectal cancer (N=4, 33%) and pancreatic cancer (N=8, 67%), while metastatic biopsy tissue sites included lung (N=2, 17%), liver (N=7, 58%), rectum (N=2, 17%), and pleura (N=1, 8%). the inventors analyzed five paired tumor biopsies ([…], 83%), and two unpaired biopsies (N=2 slides total, 17%). Half (N=6, 50%) of the tumor sections were needle biopsies and half (N=6, 50%) were tissue biopsies. All patients included in this analysis were considered responders based on the definition used in the Phase 1 trial that treatment response is equal to disease control greater than 16 weeks. […]

[1] = CD45+ regions, post- vs pre-treatment biopsies
[2] = tumor-infiltrating CD45+ segments, post- vs pre-treatment

SMILES: Cn1cc(C2=C(c3coc4ccc(F)cc34)C(=O)NC2=O)c2cc3c(cc21)OCO3 [elraglusib]
- CD11 b protein expression [1]: decreased
- CD11c protein expression [1]: decreased
- CD40 protein expression [1]: decreased
- CD66b protein expression [1]: decreased
- CD68 protein expression [1]: decreased
- CD80 protein expression [1]: decreased
- IDO1 protein expression [1]: decreased
- LAG3 protein expression [1]: decreased
- PD-1 protein expression [1]: decreased
- PD-L1 protein expression [1]: decreased
- PD-L2 protein expression [1]: decreased
- VISTA protein expression [1]: decreased
- PD-L1 expression (PanCK+ segments, post- vs pre-treatment biopsies): downregulation
- ARG1 protein expression [2]: reduced
- B2M protein expression [2]: reduced
- B7-H3 protein expression [2]: elevated
- CD11c protein expression [2]: reduced
- CD34 protein expression [2]: reduced
- CD44 protein expression [2]: reduced
- CD45R0 protein expression [2]: reduced
- CD56 protein expression [2]: reduced
- CD66b protein expression [2]: reduced
- CD68 protein expression [2]: reduced
- CD80 protein expression [2]: reduced
- CD127 protein expression [2]: elevated
- CTLA4 protein expression [2]: elevated
- GITR protein expression [2]: reduced
- HLA-DR protein expression [2]: reduced
- IDO1 protein expression [2]: reduced
- Ki-67 protein expression [2]: reduced
- OX4OL protein expression [2]: elevated
- PD-1 protein expression [2]: reduced
- PD-L1 protein expression [2]: reduced
- PD-L2 protein expression [2]: reduced
- PTEN protein expression [2]: reduced
- VISTA protein expression [2]: reduced
